In ChEMBL document CHEMBL3580598, “Limonoids and Triterpenoids from Dysoxylum mollissimum var. glaberrimum” (J Nat Prod, 2015):

Key:
HL-60 [1] = experiment: Cytotoxicity against human HL60 cells assessed as inhibition of cell growth at 10 uM by MTT method; format: functional; settings: read-out: GI
P388 [2] = experiment: Cytotoxicity against mouse P388 cells assessed as inhibition of cell growth at 10 uM by MTT method; format: functional; settings: read-out: GI
A549 [3] = experiment: Cytotoxicity against human A549 cells assessed as inhibition of cell growth at 10 uM by SRB protein staining method; format: functional; settings: read-out: GI
A549 [4] = experiment: Cytotoxicity against human A549 cells by SRB protein staining method; format: functional, cell-based
P388 [5] = experiment: Cytotoxicity against mouse P388 cells by MTT method; format: functional, cell-based
HL-60 [6] = experiment: Cytotoxicity against human HL60 cells by MTT method; format: functional, cell-based

Structure (SMILES)	inhibition of growth at 10 µM (HL-60 [1])	inhibition of growth at 10 µM (P388 [2])	inhibition of growth at 10 µM (A549 [3])	IC50 (A549 [4])	IC50 (P388 [5])	IC50 (HL-60 [6])
CC(=O)O[C@H]1CC(=O)O[C@@]2(C)CO[C@H]3[C@@H](O)[C@]4(C)[C@H](CC[C@@]5(C)[C@H](c6ccoc6)OC(=O)[C@H]6O[C@@]645)[C@]1(C)[C@@H]32	< 50%	< 50%	< 50%			
CC(=O)O[C@@H]1C[C@H]2C(C)(C)[C@H](O)CC[C@]2(C)[C@H]2CC[C@]3(C)C(=CC[C@H]3[C@@]3(O)COC(=O)C3)[C@@]21C	< 50%	< 50%	< 50%			
COC(=O)C[C@H](OC(C)=O)[C@]1(C)[C@H]2CC[C@@]3(C)[C@H](c4ccoc4)OC(=O)[C@H]4O[C@]43[C@]2(C)[C@H](OC(C)=O)[C@H](OC(C)=O)[C@H]1C(C)(C)O	< 50%	< 50%	< 50%			
C[C@@H]([C@@H]1O[C@H]1[C@@H](O)C(C)(C)O)[C@@H]1CC[C@]2(C)C3=CC[C@H]4C(C)(C)C(=O)CC[C@]4(C)[C@H]3CC[C@@]12C	< 50%	< 50%	< 50%			
C=C1[C@@H]([C@@]2(C)C=CC(=O)O[C@@](C)(COC(C)=O)[C@@H]2CC(=O)OC)[C@@H](OC=O)[C@H](OC(=O)C(O)C(C)C)[C@@]2(C)[C@H](c3ccoc3)[C@@H](OC(=O)C(OC(C)=O)C(C)C)[C@H]3O[C@]132 (some centres undefined)	< 50%	< 50%	< 50%			
C=C1[C@@H]([C@@]2(C)[C@@H](OC(C)=O)CC(=O)O[C@@](C)(COC(C)=O)[C@@H]2CC(=O)OC)[C@@H](C(=O)O)[C@H](OC(=O)C(O)C(C)C)[C@@]2(C)[C@H](c3ccoc3)C(OC(=O)C(C)CC)[C@H]3O[C@]132 (some centres undefined)				2100 nM		
CC(=O)O[C@H]1CC(=O)O[C@@]2(C)CO[C@H]3[C@@H](OC(=O)C(O)C(C)C)[C@]4(C)[C@H](CC[C@@]5(C)[C@H](c6ccoc6)OC(=O)[C@H]6O[C@@]645)[C@]1(C)[C@@H]32 (some centres undefined)	< 50%	< 50%	< 50%			
C=C(C)[C@@H]1C[C@@H](O)[C@@]2(C)C3=C[C@H](OC(C)=O)[C@@H](c4ccoc4)[C@]3(C)CC[C@@H]2[C@@]1(C)[C@@H](O)CC(=O)OC	< 50%	< 50%	< 50%			
COc1cccc2c1C(=O)c1c(O)c3c(c(O)c1C2=O)C[C@@](O)(C(=O)CO)C[C@@H]3O[C@H]1C[C@H](N)[C@H](O)[C@H](C)O1 [DOXORUBICIN]					200 nM	58 nM
C[C@@H]([C@@H]1O[C@H]1[C@H](O)C(C)(C)O)[C@@H]1CC[C@]2(C)C3=CC[C@H]4C(C)(C)C(=O)CC[C@]4(C)[C@H]3CC[C@@]12C	< 50%		< 50%			
CC1(C)C(=O)CC[C@]2(C)[C@H]3CC[C@]4(C)C(=CC[C@H]4C4=CC(=O)OC4)[C@]3(C)[C@H](OC(=O)c3ccccc3)C[C@@H]12	< 50%	< 50%	< 50%			
